Experimental data published in patent US20090093469A1, “Phenylaminopropanol Derivatives and Methods of Their Use” (WYETH, priority 2004, published 2009).
Counter-ions that a name gives are not always drawn.

Biological target: T1, hNET (Homo sapiens, UniProt P23975)
T1 construct: expressed in transfected cells
Assay: Norepinephrine (NE) uptake assay in MDCK-Net6 cells stably transfected with human hNET
Assay type: cell-based
Conditions: MDCK-Net6, read-out: % Inhibition @ 1 μM (hNET)

T1 sequence (P23975 whole entry): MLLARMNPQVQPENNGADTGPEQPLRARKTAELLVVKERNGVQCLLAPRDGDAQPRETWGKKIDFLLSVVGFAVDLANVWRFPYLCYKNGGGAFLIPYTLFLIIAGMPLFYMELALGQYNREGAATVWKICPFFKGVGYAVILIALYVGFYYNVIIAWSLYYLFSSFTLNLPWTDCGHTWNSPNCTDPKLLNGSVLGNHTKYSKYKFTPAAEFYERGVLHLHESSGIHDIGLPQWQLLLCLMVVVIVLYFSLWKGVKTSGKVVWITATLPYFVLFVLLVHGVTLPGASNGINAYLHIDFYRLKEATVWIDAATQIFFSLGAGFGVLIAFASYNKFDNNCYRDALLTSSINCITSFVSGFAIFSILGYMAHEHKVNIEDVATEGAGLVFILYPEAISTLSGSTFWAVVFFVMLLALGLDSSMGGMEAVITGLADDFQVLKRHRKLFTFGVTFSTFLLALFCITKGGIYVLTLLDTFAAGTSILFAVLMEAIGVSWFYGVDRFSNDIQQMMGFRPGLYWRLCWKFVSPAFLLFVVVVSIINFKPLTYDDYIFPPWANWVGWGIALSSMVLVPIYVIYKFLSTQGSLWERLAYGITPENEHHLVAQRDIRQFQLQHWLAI

Compound | inhibition at 1 µM [%]
CNC[C@@H](O)[C@H](c1cccc(F)c1)n1ccc2c(Br)cccc21 [Example 125, (1S,2R)-1-(4-bromo-1H-indol-1-yl)-1-(3-fluorophenyl)-3-(methylamino)propan-2-ol hydrochloride] | 94.3
CNC[C@@H](O)[C@H](c1cccc(F)c1)n1ccc2cc(Br)ccc21 [Example 127, (1S,2R)-1-(5-bromo-1H-indol-1-yl)-1-(3-fluorophenyl)-3-(methylamino)propan-2-ol hydrochloride] | 95.7
CNC[C@@H](O)[C@H](c1cccc(F)c1)n1ccc2ccc(Br)cc21 [Example 132, (1S,2R)-1-(6-bromo-1H-indol-1-yl)-1-(3-fluorophenyl)-3-(methylamino)propan-2-ol hydrochloride] | 93
CNC[C@@H](O)[C@H](c1cccc(F)c1)n1ccc2ccc(F)cc21 [Example 133, (1S,2R)-1-(6-fluoro-1H-indol-1-yl)-1-(3-fluorophenyl)-3-(methylamino)propan-2-ol hydrochloride] | 96.4
CNC[C@@H](O)[C@H](c1cccc(F)c1)n1ccc2cccc(Br)c21 [Example 135, (1S,2R)-1-(7-bromo-1H-indol-1-yl)-1-(3-fluorophenyl)-3-(methylamino)propan-2-ol hydrochloride] | 99.5
CNC[C@@H](O)[C@H](c1cccc(C(F)(F)F)c1)n1ccc2ccccc21 [Example 136, (1S,2R)-1-(1H-indol-1-yl)-3-(methylamino)-1-[3-(trifluoromethyl)phenyl]propan-2-ol hydrochloride] | 97
CNC[C@H](O)[C@H](c1cccc(F)c1)n1ccc2ccccc21 [Example 139, (1S,2S)-1-(3-fluorophenyl)-1-(1H-indol-1-yl)-3-(methylamino)propan-2-ol hydrochloride] | 94.9
CNC[C@@H](O)[C@H](c1cccc(F)c1)n1cc(C)c2ccccc21 [Example 143, (1S,2R)-1-(3-fluorophenyl)-3-(methylamino)-1-(3-methyl-1H-indol-1-yl)propan-2-ol hydrochloride] | 96.8
CNC[C@@H](O)[C@H](c1cccc(F)c1)n1ccc2cccc(Cl)c21 [Example 149, (1S,2R)-1-(7-chloro-1H-indol-1-yl)-1-(3-fluorophenyl)-3-(methylamino)propan-2-ol hydrochloride] | 100
CNC[C@@H](O)[C@H](c1cccc(F)c1)n1ccc2c(Cl)cccc21 [Example 150, (1S,2R)-1-(4-chloro-1H-indol-1-yl)-1-(3-fluorophenyl)-3-(methylamino)propan-2-ol hydrochloride] | 98.3
CNC[C@@H](O)[C@H](c1cccc(F)c1)n1ccc2ccc(Cl)cc21 [Example 151, (1S,2R)-1-(6-chloro-1H-indol-1-yl)-1-(3-fluorophenyl)-3-(methylamino)propan-2-ol hydrochloride] | 94.3
CNC[C@@H](O)[C@H](c1ccccc1)n1ccc2cc(Cl)ccc21 [Example 152, (1S,2R)-1-(5-chloro-1H-indol-1-yl)-3-(methylamino)-1-phenylpropan-2-ol hydrochloride] | 96.2
CNC[C@@H](O)[C@H](c1cccc(F)c1)n1ccc2cc(Cl)ccc21 [Example 153, (1S,2R)-1-(5-chloro-1H-indol-1-yl)-1-(3-fluorophenyl)-3-(methylamino)propan-2-ol hydrochloride] | 97.4

Same assay, conditions: test compound 1 μM; [3H]NE uptake, MDCK-Net6 cells; read-out: % Inhibition @ 1 μM (hNET)

Compound | inhibition at 1 µM [%]
CNC[C@@H](O)[C@H](c1ccccc1)N1C(=O)C2(CCCCC2)c2cc(Br)ccc21 [Example 113, 5′-bromo-1′-[(1S,2R)-2-hydroxy-3-(methylamino)-1-phenylpropyl]-spiro[cyclohexane-1,3′-indol]-2′(1′H)-one hydrochloride] | 99.7
CNC[C@@H](O)[C@H](c1cccc(F)c1)n1cc(-c2ccccc2F)c2ccccc21 [Example 114, (1S,2R)-1-(3-fluorophenyl)-1-[3-(2-fluorophenyl)-1H-indol-1-yl]-3-(methylamino)propan-2-ol hydrochloride] | 100
CNC[C@@H](O)[C@H](c1cccc(F)c1)n1cc(-c2ccc(Cl)c(Cl)c2)c2ccccc21 [Example 115, (1S,2R)-1-[3-(3,4-dichlorophenyl)-1H-indol-1-yl]-1-(3-fluorophenyl)-3-(methylamino)propan-2-ol hydrochloride] | 23.9
CNC[C@@H](O)[C@H](c1cccc(F)c1)n1cc(-c2cccc(F)c2)c2ccccc21 [Example 116, (1S,2R)-1-(3-fluorophenyl)-1-[3-(3-fluorophenyl)-1H-indol-1-yl]-3-(methylamino)propan-2-ol hydrochloride] | 97.3
CNC[C@@H](O)[C@H](c1ccccc1)n1cc(C)c2cc(F)ccc21 [Example 117, (1S,2R)-1-(5-fluoro-3-methyl-1H-indol-1-yl)-3-(methylamino)-1-phenylpropan-2-ol hydrochloride] | 95.3
CNC[C@@H](O)[C@H](c1ccccc1)n1cc(C)c2cc(Cl)ccc21 [Example 119, (1S,2R)-1-(5-chloro-3-methyl-1H-indol-1-yl)-3-(methylamino)-1-phenylpropan-2-ol hydrochloride] | 96.3
Cc1cn([C@@H](c2ccccc2)[C@H](O)CN)c2ccc(Cl)cc12 [Example 120, (1S,2R)-3-amino-1-(5-chloro-3-methyl-1H-indol-1-yl)-1-phenylpropan-2-ol hydrochloride] | 68.6
CNC[C@@H](OC)[C@H](c1ccccc1)n1cc(C)c2cc(Cl)ccc21 [Example 121, [(2R,3S)-3-(5-chloro-3-methyl-1H-indol-1-yl)-2-methoxy-3-phenylpropyl]methylamine] | 21.2
CNC[C@@H](O)[C@H](c1ccccc1)n1cc(C)c2cccc(Cl)c21 [Example 122, (1S,2R)-1-(7-chloro-3-methyl-1H-indol-1-yl)-3-(methylamino)-1-phenylpropan-2-ol hydrochloride] | 97.4
CNC[C@@H](OC)[C@H](c1ccccc1)n1cc(C)c2cc(F)ccc21 [Example 123, [(2R,3S)-3-(5-fluoro-3-methyl-1H-indol-1-yl)-2-methoxy-3-phenylpropyl]methylamine hydrochloride] | 65
CNC[C@@H](O)[C@H](c1ccccc1)n1ccc2c(Br)cccc21 [Example 124, (1S,2R)-1-(4-bromo-1H-indol-1-yl)-3-(methylamino)-1-phenylpropan-2-ol hydrochloride] | 91.5
CNC[C@@H](O)[C@H](c1ccccc1)n1ccc2cc(Br)ccc21 [Example 126, (1S,2R)-1-(5-bromo-1H-indol-1-yl)-3-(methylamino)-1-phenylpropan-2-ol hydrochloride] | 92.9
CNC[C@@H](O)[C@H](c1ccccc1)n1ccc2c(C#N)cccc21 [Example 128, 1-[(1S,2R)-2-hydroxy-3-(methylamino)-1-phenylpropyl]-1H-indole-4-carbonitrile hydrochloride] | 45.6
CNC[C@@H](O)[C@H](c1ccccc1)n1ccc2ccc(Br)cc21 [Example 129, (1S,2R)-1-(6-bromo-1H-indol-1-yl)-3-(methylamino)-1-phenylpropan-2-ol hydrochloride] | 71.8
CNC[C@@H](O)[C@H](c1ccccc1)n1ccc2cc(C#N)ccc21 [Example 130, 1-[(1S,2R)-2-hydroxy-3-(methylamino)-1-phenylpropyl]-1H-indole-5-carbonitrile hydrochloride] | 76
CNC[C@@H](O)[C@H](c1cccc(F)c1)n1ccc2c(C#N)cccc21 [Example 131, 1-[(1S,2R)-1-(3-fluorophenyl)-2-hydroxy-3-(methylamino)propyl]-1H-indole-4-carbonitrile hydrochloride] | 63.1
NC[C@@H](O)[C@H](c1cccc(F)c1)n1ccc2ccccc21 [Example 134, (1S,2R)-3-amino-1-(3-fluorophenyl)-1-(1H-indol-1-yl)propan-2-ol hydrochloride] | 68.5
CNC[C@@H](O)[C@H](c1cccc(C(F)(F)F)c1)N1CCc2ccccc21 [Example 138, (1S,2R)-1-(2,3-dihydro-1H-indol-1-yl)-3-(methylamino)-1-[3-(trifluoromethyl)phenyl]propan-2-ol hydrochloride] | 97.9
CNC[C@@H](O)[C@H](c1ccc(F)c(F)c1)n1ccc2ccccc21 [Example 140, (1S,2R)-1-(3,4-difluorophenyl)-1-(1H-indol-1-yl)-3-(methylamino)propan-2-ol hydrochloride] | 96.7
CNC[C@@H](O)[C@H](c1ccccc1)n1ccc2c(Cl)cccc21 [Example 146, (1S,2R)-1-(4-chloro-1H-indol-1-yl)-3-(methylamino)-1-phenylpropan-2-ol hydrochloride] | 97.1
CNC[C@@H](O)[C@H](c1ccccc1)n1ccc2ccc(Cl)cc21 [Example 147, (1S,2R)-1-(6-chloro-1H-indol-1-yl)-3-(methylamino)-1-phenylpropan-2-ol hydrochloride] | 91.7
CNC[C@@H](O)[C@H](c1ccccc1)n1ccc2cccc(Cl)c21 [Example 148, (1S,2R)-1-(7-chloro-1H-indol-1-yl)-3-(methylamino)-1-phenylpropan-2-ol hydrochloride] | 97.8
CNC[C@@H](O)[C@H](c1ccccc1)n1cc(C(C)C)c2ccccc21 [Example 154, (1S,2R)-1-(3-isopropyl-1H-indol-1-yl)-3-(methylamino)-1-phenylpropan-2-ol hydrochloride] | 96.1
CNC[C@@H](O)[C@H](c1cccc(F)c1)n1cc(C(C)C)c2ccccc21 [Example 155, (1S,2R)-1-(3-fluorophenyl)-1-(3-isopropyl-1H-indol-1-yl)-3-(methylamino)propan-2-ol hydrochloride] | 98.9
CNC[C@@H](O)[C@H](c1cc(F)cc(F)c1)n1ccc2ccccc21 [Example 157, (1S,2R)-1-(3,5-difluorophenyl)-1-(1H-indol-1-yl)-3-(methylamino)propan-2-ol hydrochloride] | 99.6
